Measurements reported in a compilation of properties of binary mixtures (doi:10.1016/j.molliq.2017.12.017).

Assay: xn = mol fraction of the nth substance listed
Settings: 101 kPa

COCCO + CC[n+]1ccn(C)c1.O=S(=O)([O-])C(F)(F)F
x2 = 0
Settings | speed of sound [m/s]
298.15 K | 1342.3
308.15 K | 1308.2
313.15 K | 1290.8
318.15 K | 1273.6

CC[n+]1ccn(C)c1.O=S(=O)([O-])C(F)(F)F + COCCO
speed of sound [m/s]
Settings | 298.15 K | 303.15 K | 308.15 K | 313.15 K | 318.15 K
x1 = 0.0531 | 1359 | – | 1327 | 1310.8 | 1294.7
x1 = 0.1062 | 1367 | 1351.6 | 1336.4 | – | 1305.4
x1 = 0.1999 | – | 1365.9 | 1351.6 | 1337.2 | –
x1 = 0.2935 | 1392 | 1378.7 | – | 1351.8 | 1338.3
x1 = 0.3958 | 1403.5 | 1390.9 | 1378.3 | 1365.7 | –
x1 = 0.4452 | – | 1396.2 | 1383.9 | 1371.6 | 1359.3
x1 = 0.5036 | 1413.9 | 1402 | 1390 | 1378 | 1366.1
x1 = 0.5752 | 1419.9 | 1408.2 | 1396.6 | 1385 | –
x1 = 0.6452 | – | 1413.5 | 1402.1 | 1390.8 | 1379.4
x1 = 0.7142 | 1429.2 | 1417.9 | 1406.7 | 1395.5 | 1384.3
x1 = 0.8049 | – | 1422.5 | 1411.3 | – | 1389.2
x1 = 0.8751 | 1436.5 | 1425.1 | 1413.9 | 1402.8 | 1391.8
x1 = 0.9522 | – | 1427 | 1415.7 | 1404.5 | –
x1 = 1 | 1435.8 | – | 1413.5 | 1402.4 | 1391.4
